Calls of active or inactive are those of the source.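 The calls were made as follows: active = fitted EC50 no more than tenfold above the highest tested concentration; inconclusive = flat fit with 30 to 70% signal loss, or poor fit; inactive = the rest.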 A value given as a limit tells only on which side of the number the result lay.

For the assay, the system named is Candida albicans CaCi-2 growth (no fluconazole), Alamar Blue. The experiment in a line: C. albicans growth inhibition without fluconazole, dose response, counter-screen for fluconazole resistance reversal project, CaCi-2 strain, Alamar Blue fluorescence (AID 2387). Conditions: C. albicans CaCi-2 (fluconazole-resistant clinical isolate) growth without fluconazole, 48 h.

Consider `COc1ccc(-n2c(-c3cccc(C)c3[N+](=O)[O-])n[nH]c2=S)cc1`, for which the EC50 was > 15 µM (inactive).
As to `CC1(O)CC(c2ccc(Cl)cc2)=NN1C(=O)c1ccc([N+](=O)[O-])cc1` (stereo not drawn), the EC50 is > 16 µM (inactive).
`O=C(Nc1sc2c(c1C(=O)c1ccc(Cl)cc1)CCCC2)c1cccnc1`: the EC50 was > 15 µM (inactive).
In the case of `C(=C\c1ccccc1)/CN1CCN(c2ncnc3c2oc2ccccc23)CC1` it was > 16 µM (inactive); in that of `CC1CCN(Cc2c(C(=O)N/N=C/c3cc(Br)ccc3O)nnn2-c2nonc2N)CC1`, > 16 µM (inactive); in that of `Cc1cccc2sc(NNC(=O)c3cc(-c4cccs4)nc4ccccc34)nc12`, > 16 µM (inactive).
In the case of `O=[N+]([O-])c1ccc(O)c(Nc2ncnc3ccc(Br)cc23)c1`, the EC50 is > 16 µM (inactive).
The result for `Cc1nc2ccccc2cc1OCc1ccc(F)cc1` reads > 16 µM (inactive); that for `Cn1c(N2CCOCC2)c(/C=N/OC(=O)c2ccc(F)cc2)c2ccccc21`, > 16 µM (inactive); that for `CCCC(=O)NC(c1ccco1)c1cc([N+](=O)[O-])c2cccnc2c1O` (stereo not drawn), > 15 µM (inactive).
Consider `O=C(c1cc(-c2ccccc2)n[nH]1)N1CCc2c([nH]c3ccccc23)C1c1ccccn1` (stereo not drawn), for which the EC50 is > 16 µM (inactive).
In the case of `CC(=O)N(O)CCCCCNC(=O)CCC(=O)N(O)CCCCCNC(=O)CCC(=O)N(O)CCCCCN` it was > 15 µM (inactive).
The result for `CCN(CC)S(=O)(=O)c1cc(OC)ccc1N=Nc1ccc(O)c2ncccc12` reads 6.91 µM.
Take `CCN1/C(=C/c2sc(-c3ccccc3C)c[n+]2C)Sc2ccccc21`: the EC50 is > 15 µM (inactive).
For `Cc1ccc(NC(=O)c2ccccc2NS(=O)(=O)c2ccc(Cl)s2)cc1`, the EC50 was > 15 µM (inactive).
As for `COc1ccc(C(NC(=O)C(C)C)c2ccc3cccnc3c2O)cc1` (stereo not drawn), the EC50 is > 15 µM (inactive).
The result for `C[n+]1c2n(c3ccccc31)N=C(c1ccc(-c3ccccc3)cc1)CS2` reads > 16 µM (inactive); that for `O=C(CCc1ccccc1)NNC(=S)NC(=O)c1ccccc1`, > 15 µM (inactive); that for `Nc1ccc(C(=O)N/N=C\c2ccc(OC(=O)c3ccccc3Cl)cc2)cc1`, > 16 µM (inactive).
The result for `C(C#CCCCCCCCCC[n+]1ccccc1)#CCCCCCCCCC[n+]1ccccc1` reads 2.52 µM; that for `CCc1nnc(NC(=O)CN2CCN(c3nc(-c4ccccc4)cs3)CC2)s1`, > 15 µM (inactive); that for `CCCCCCCNC(=O)COc1ccc2c(c1)C(=O)CC(C)(C)O2`, > 16 µM (inactive).
In the case of `CN1/C(=C/C(=O)c2cccs2)Sc2ccccc21` it was > 15 µM (inactive).
For `O=C(CCS(=O)(=O)c1ccc(F)cc1)Nc1nc(-c2ccncc2)cs1`, the EC50 was > 15 µM (inactive).
For the compound `CCC(=O)NC(c1cccs1)c1cc(Cl)c2cccnc2c1O` (stereo not drawn), the 50% effective concentration (EC50) is 16.4 µM.
In the case of `C[C@]12CCC3[C@@H](CC[C@H]4C[C@@H](O)CC[C@]34C)C1CCC2=O` (stereo partly drawn), the EC50 is > 15 µM (inactive).
Take `Oc1c(CN2CCN(c3ccc(F)cc3)CC2)cc(Cl)c2cccnc12`: the EC50 was 2.74 µM.
In the case of `O=c1[nH]c(-c2ccccn2)nc(C(F)(F)F)c1Br` it was > 15 µM (inactive).
In the case of `C/C(=N\NC(=O)c1cc2ccccc2cc1O)c1ccccn1` it was 9.98 µM.
In the case of `c1ccc2c(c1)CCN(c1ncnc3c1[nH]c1ccccc13)C2` it was > 15 µM (inactive).
Take `Cc1ccc(NC(=O)CNC(=O)c2ccc(Oc3ccccc3)cc2)nc1`: the EC50 was > 15 µM (inactive).
Take `CCc1nnc(NC(=O)CSc2ncc(-c3ccccc3)n2C)s1`: the EC50 is > 15 µM (inactive).
`O=C(N/N=C/c1cc([N+](=O)[O-])ccc1O)c1ccc(COc2ccc3c(c2)CCC3)o1`: the EC50 is 12.3 µM.
In the case of `Cc1cccc(/C=C/C(=O)c2cc(Br)ccc(=O)c2O)c1` it was 14.5 µM; in that of `CC1=C(CC[C@@H](C)CO)OC2CC3C4CCC5CC(O)CCC5(C)C4CC(=O)C3(C)C12` (stereo partly drawn), > 15 µM (inactive); in that of `Cc1cccc(C(=O)NNC2=C(C(=O)C(F)(F)F)CCC2)c1O`, > 16 µM (inactive).
The result for `Cc1ccccc1/C=C1\SC(=S)N(/N=C/c2cc([N+](=O)[O-])ccc2O)C1=O` reads > 16 µM (inactive); that for `CCCCCCC[n+]1ccc(-c2cc[n+](CCCCCCC)cc2)cc1`, 1.68 µM.
Turning to `CCN(CC)S(=O)(=O)c1ccc(N/N=C/c2ccc(O)cc2O)nc1`, the EC50 was > 16 µM (inactive).
Regarding `O=C1CS/C(=N\C(=O)N2c3ccccc3Sc3ccccc32)N1`, the EC50 was > 15 µM (inactive).
The result for `O=C(Oc1c(CN2CCOCC2)cc(Cl)c2cccnc12)c1ccc(F)cc1` reads > 16 µM (inactive); that for `CCOc1ccc(/C=C/C2=CC(C)(C)NC(=S)N2)cc1`, > 15 µM (inactive); that for `CCCCC(=O)NC(c1ccc(N(CC)CC)cc1)c1ccc2cccnc2c1O` (stereo not drawn), 8.6 µM.
Turning to `O=C(N/N=C/c1ccccc1O)c1cccc(C(F)(F)F)c1`, the EC50 was > 15 µM (inactive).
Take `CCCOc1ccc(C(=O)NNC(=S)NC(C)=O)cc1`: the EC50 was > 16 µM (inactive).
In the case of `COc1ccc(-c2nnc(NC(=O)c3cc(Cl)ccc3Cl)o2)cc1` it was > 15 µM (inactive); in that of `COc1ccc2c(c1)/C(=C/c1cnc[nH]1)C(=O)N2`, > 16 µM (inactive).
As for `O=C(NNC1=C(C(=O)C(F)(F)F)CCC1)c1ccc(Cl)cc1`, the EC50 is > 15 µM (inactive).
The result for `COc1ccc(-n2nc(C(=O)NCC(=O)NCCC3=CCCCC3)c3ccccc3c2=O)c(OC)c1` reads > 15 µM (inactive); that for `CN1CCN(C(c2ccc(C(F)(F)F)cc2)c2ccc3cccnc3c2O)CC1` (stereo not drawn), 8.31 µM; that for `Oc1ccc2ccccc2c1/C=N/Nc1nnc(-c2ncc[nH]2)c2ccccc12`, > 15 µM (inactive).
The result for `CC1CCN(Cc2c(C(=O)N/N=C/c3cc(Cl)ccc3O)nnn2-c2nonc2N)CC1` reads > 15 µM (inactive); that for `Oc1ccc(N=Nc2ccc3c(c2)OCCO3)c2ncccc12`, 3.31 µM.
The result for `O=C(Nc1nnc(SCc2ccc(Cl)cc2)s1)c1cnccn1` reads > 16 µM (inactive).
Regarding `CC(C)Cc1nc2oc3c(=O)[nH]cnc3c2c2c1CCCC2`, the EC50 is > 15 µM (inactive).
The result for `Cc1ccc(C(=O)Nc2cccc(-c3cn4ccccc4n3)c2)cc1` reads > 16 µM (inactive).
For `Oc1c(C(c2ccc(Cl)cc2)N2CCCC2)cc(Cl)c2cccnc12` (stereo not drawn), the concentration giving a half-maximal response (EC50) was 3.15 µM.
As to `O=C(c1ccc(Cn2c(=O)[nH]c3ccccc3c2=O)cc1)N1CCN(c2ccc(F)cc2)CC1`, the EC50 was > 15 µM (inactive).
Turning to `Cc1ccc(NC2=CC(=O)C(=O)c3ccccc32)cc1`, the EC50 was > 15 µM (inactive).
In the case of `Cc1cc(=O)oc2cc(Oc3ccc([N+](=O)[O-])cc3[N+](=O)[O-])ccc12` it was > 16 µM (inactive); in that of `Cc1c(OCC(=O)NCC(O)c2ccccc2)ccc2c(-c3ccccc3)cc(=O)oc12` (stereo not drawn), > 16 µM (inactive); in that of `COc1ccc(CCNc2ncnc3sc(C)cc23)cc1OC`, > 15 µM (inactive).
In the case of `O=C(Oc1c(Cl)cc(Cl)c2cccnc12)c1cccs1` it was 1.41 µM; in that of `CCOc1ccc(NC(=O)c2cn(-c3ccc(OCC)cc3)c(=O)c3cc(OC)c(OC)cc23)cc1`, > 16 µM (inactive); in that of `CCN(CC)c1ccc2cc(S(=O)(=O)c3ccc(C)cc3)c(=O)oc2c1`, > 16 µM (inactive).
The result for `CCCC(=O)NC(c1ccccc1OC)c1ccc2cccnc2c1O` (stereo not drawn) reads > 16 µM (inactive); that for `Cc1ccc(C)c(NC(=S)NNC(=O)c2csc(C(C)C)c2)c1`, > 16 µM (inactive).
As for `Cc1ccc(OCC(=O)NNC(=S)NC(=O)C2CC2)c(C)c1`, the EC50 is > 15 µM (inactive).
In the case of `Cc1cc(Br)ccc1OCC(=O)NNC(=O)C(=O)Nc1ccccc1` it was > 15 µM (inactive).
In the case of `O=C(NCc1cc([N+](=O)[O-])ccc1O)c1cccnc1Sc1ccccc1Cl` it was > 15 µM (inactive).
For `CCNc1nc(NC(C)C)nc(NC(C)(C)C)n1`, the EC50 was > 16 µM (inactive).
On to `Cc1cc(C(C#N)c2ccccc2F)n2ncnc2n1` (stereo not drawn), for which the EC50 is > 16 µM (inactive).
For `CC1(C)COCN1S(=O)(=O)c1ccc(C(=O)Nc2nnc(-c3ccc(Cl)s3)o2)cc1`, the EC50 is > 16 µM (inactive).
In the case of `CN(C)S(=O)(=O)Oc1cccc(C(=O)Nc2ccc(Cl)c(Cl)c2)c1` it was > 15 µM (inactive); in that of `Oc1c(CN2CCc3ccccc3C2)cc(Cl)c2cccnc12`, 4.84 µM; in that of `c1ccc2c(c1)OCC(CNc1ncnc3sccc13)O2` (stereo not drawn), > 15 µM (inactive).
The result for `O=C(CC(=O)c1cccc([N+](=O)[O-])c1)Nc1ccccc1Cl` reads > 16 µM (inactive); that for `Cc1cc(C(=O)N/N=C/c2cc(Cl)cc([N+](=O)[O-])c2O)c2ccccc2n1`, > 15 µM (inactive).
Take `CNC(=O)Nc1cc(C(F)(F)F)cc(C(F)(F)F)c1`: the EC50 is > 15 µM (inactive).
The result for `Cc1cc(C)n(-c2nc3ccccc3c(=O)n2OCC#N)n1` reads 11.2 µM; that for `O=C(N/N=C/c1sc2ccccc2c1O)c1cccc2ccccc12`, > 16 µM (inactive).
The result for `COc1cccc(/C=N/NC(=O)C(=O)Nc2ccccc2OC(F)(F)C(F)F)c1O` reads > 16 µM (inactive); that for `CCn1c(Sc2nc(C)nc3scc(-c4cccs4)c23)n[nH]c1=O`, > 16 µM (inactive).
With `CS(=O)(=O)NN1C(=O)c2ccccc2NC1c1cccc2cccnc12` (stereo not drawn), the EC50 was > 16 µM (inactive).
The result for `Cc1ccc(-c2nc3c(Cl)cc(Cl)cc3c(=O)n2O)cc1` reads 11.5 µM; that for `O=C(Oc1cc2oc(=O)c3c(c2cc1Cl)CCCC3)c1cccs1`, > 15 µM (inactive).
For `COc1ccc(-n2c(=O)c3c4c(sc3n3c(=S)[nH]nc23)CCCC4)cc1`, the EC50 is > 16 µM (inactive).
The result for `COC(=O)Cn1nc(-c2ccccc2)c2ccccc21` reads > 15 µM (inactive).

The EC50 is the concentration giving half of the maximal effect.
